# Measured values: patent publication US9000037B2, “Precursors of glutamate derivatives” (Piramal Imaging SA, priority 2011, dated 2015)
# How the values were obtained:
# tumor = conditions: cited from earlier work
# [1] = 19F-fluorination of precursors, reaction rates; type: physicochemical; conditions: for krel (relative reaction rate): 19F-fluorination, slowest reaction (If) defined as 1; for reaction rate of 19F-fluorination, in words: comparison among precursors
# Procedure: Precursor (0.01 mmol) was dissolved in acetonitrile (0.5 mL), and 1.0 M TBAF/acetonitrile solution (20 μL, 0.02 mmol) was added. The reaction mixture was stirred at 80° C. for 2 h. 40 μL of solution was taken at 5, 10, 20, 40, 60, 90, and 120 min for HPLC analysis (method A4).
# ^19F-Fluorination was performed as described in “General procedures”. The progress of the reaction was examined after 5, 10, 20, 40, 60, 90, and 120 min. Plotting the percentage of the conversation versus the time, the reaction rates were calculated.
# [2] = Stability of example compounds in solid form (HPLC); type: physicochemical; conditions: for Solid (%) Start: purity by HPLC before the study; for Solid (%) 1 week 0° C. / Solid (%) 1 week −20° C. / Solid (%) 2 week 0° C. / Solid (%) 2 week −20° C. / Solid (%) 3 week 0° C. / Solid (%) 3 week −20° C. / Solid (%) 4 week 0° C. / Solid (%) 4 week −20° C.: amber vial under Ar; for Solid (%) 2 week 0° C. / Solid (%) 2 week −20° C.: 2 weeks; for Solid (%) 3 week 0° C. / Solid (%) 3 week −20° C.: 3 weeks; for Solid (%) 4 week 0° C. / Solid (%) 4 week −20° C.: 4 weeks
# Procedure: Method A1 (analytics of di-tert-butyl (4S)-4-(3-hydroxypropyl)-N-trityl-L-glutamate • Column: ChiralPak IA, 4.6×250 mm • Mobile phase: 5% IPA/n-heptane • Flow rate: 1 mL/min • Wavelength: 214/254 nm Method A2 (for Id) • Column: X-Bridge • Mobile phase: Acetonitrile/water 20:80 to 100% water • Flow rate: 1 mL/min • Wavelength: 214 nm Method A3 (for Ia to Ic and Ie to II) • Column: X-Bridge • Mobile phase: Acetonitrile/water […] to 100% water • Flow rate: 1 mL/min • Wavelength: 214 nm Method A4 (^19F-fluorination) • Column: Phenomenex Lux 5U Amylose-2 • Mobile phase: 10% IPA/Hex • Flow rate: 1 mL/min • Wavelength: 214 nm Method A5 (^18F-radiolabeling) • Column: Phenomenex Luna 5μ C18(2); 250*4.6 mm • Mobile phase: A: Na2HPO4 10 mM pH 7.4, B: acetonitrile • Gradient: 0 min 12% B, 15 min 12% B, 16 min 100% B, 18 min 100% B, 20 min 12% B, 23 min 12% B • Flow rate: 1.2 mL/min • Wavelength: 340 nm • Derivatization: […] of the product solution are mixed with […] OPA reagent (Thermo Scientific, No.:26015). After 1 min reaction at room temperature the solution is applied to the HPLC
# The stability of the compounds of formula I were examined in solid form at two different temperatures: 0° C., and −20° C. The precursors were tested weekly for 4 weeks. Before the study, purities of the precursors were determined individually by HPLC analysis.
# 1. Solid state: 3-5 mg of the respective precursor Ia to Ij were put into 8 amber vials, which were flushed with Ar gas and capped. Each four vials containing precursor were stored at 0° C., and −20° C. Every week for 4 weeks, 1 mg of precursor was dissolved in acetonitrile (1.0 mL). 10 μL of solution was injected into HPLC (method A2 or A3, respectively).
Structure (SMILES),results in first clinical studies (tumor; compared with [18F]-4-fluoro-glutamic acid),detection of lung cancer (tumor; first clinical studies),krel (relative reaction rate) [1],"reaction rate of 19F-fluorination, in words [1]",Solid (%) Start [2] [%],Solid (%) 1 week 0° C. [2] [%],Solid (%) 1 week −20° C. [2] [%],Solid (%) 2 week 0° C. [2] [%],Solid (%) 2 week −20° C. [2] [%],Solid (%) 3 week 0° C. [2] [%],Solid (%) 3 week −20° C. [2] [%],Solid (%) 4 week 0° C. [2] [%],Solid (%) 4 week −20° C. [2] [%],tumor uptake (tumor; first clinical studies),defluorination (tumor; in vivo)
N[C@@H](C[C@H](CCC[18F])C(=O)O)C(=O)O [(S)-4-(3-[^18F]Fluoropropyl)-L-glutamic acid],Superior results,Very good results,–,–,–,–,–,–,–,–,–,–,–,–,–
"CC(C)(C)OC(=O)[C@@H](CCCOS(=O)(=O)c1ccc([N+](=O)[O-])cc1)C[C@H](NC(c1ccccc1)(c1ccccc1)c1ccccc1)C(=O)OC(C)(C)C [Ia, Di-tert-butyl (4S)-4-(3-{[(4-nitrophenyl)sulfonyl]oxy}propyl)-N-trityl-L-glutamate]",–,–,6.93,Fastest conversion,99.4,99.5,99.4,99.3,99.2,99.1,99.0,98.7,98.4,–,–
"CC(C)(C)OC(=O)[C@@H](CCCOS(=O)(=O)c1cccc([N+](=O)[O-])c1)C[C@H](NC(c1ccccc1)(c1ccccc1)c1ccccc1)C(=O)OC(C)(C)C [Ib, Di-tert-butyl (4S)-4-(3-{[(3-nitrophenyl)sulfonyl]oxy}propyl)-N-trityl-L-glutamate]",–,–,9.86,Fastest conversion,96.7,96.5,96.6,94.6,94.8,95.0,93.7,91.3,94.3,–,–
"CC(C)(C)OC(=O)[C@@H](CCCOS(=O)(=O)c1ccc(-c2ccccc2)cc1)C[C@H](NC(c1ccccc1)(c1ccccc1)c1ccccc1)C(=O)OC(C)(C)C [Ic, Di-tert-butyl (4S)-4-{3-[(biphenyl-4-ylsulfonyl)oxy]propyl}-N-trityl-L-glutamate]",–,–,2.93,–,98.8,98.6,98.6,98.6,98.7,98.6,96.9,98.4,98.0,–,–
"CC(C)(C)OC(=O)[C@@H](CCCOS(=O)(=O)c1ccc2ccccc2c1)C[C@H](NC(c1ccccc1)(c1ccccc1)c1ccccc1)C(=O)OC(C)(C)C [Id, Di-tert-butyl (4S)-4-{3-[(2-naphthylsulfonyl)oxy]propyl}-N-trityl-L-glutamate]",–,–,2.38,–,99.8,99.8,99.8,–,–,99.8,99.8,99.8,99.8,–,–
"CC(C)(C)OC(=O)[C@@H](CCCOS(=O)(=O)c1cccc2ccccc12)C[C@H](NC(c1ccccc1)(c1ccccc1)c1ccccc1)C(=O)OC(C)(C)C [Ie, Di-tert-butyl (4S)-4-{3-[(1-naphthylsulfonyl)oxy]propyl}-N-trityl-L-glutamate]",–,–,2.45,–,99.1,99.0,98.9,99.0,99.0,99.0,98.6,98.6,97.9,–,–
"CC(C)(C)OC(=O)[C@@H](CCCOS(=O)(=O)c1cccc2cccnc12)C[C@H](NC(c1ccccc1)(c1ccccc1)c1ccccc1)C(=O)OC(C)(C)C [If, Di-tert-butyl (4S)-4-{3-[(quinolin-8-ylsulfonyl)oxy]propyl}-N-trityl-L-glutamate]",–,–,1.0,slowest reaction,90.5,89.5,89.6,89.0,88.5,89.0,88.3,89.0,87.0,–,–
"CC(C)(C)OC(=O)[C@@H](CCCOS(=O)(=O)c1ccc(-c2ccc(S(=O)(=O)OCCC[C@@H](C[C@H](NC(c3ccccc3)(c3ccccc3)c3ccccc3)C(=O)OC(C)(C)C)C(=O)OC(C)(C)C)cc2)cc1)C[C@H](NC(c1ccccc1)(c1ccccc1)c1ccccc1)C(=O)OC(C)(C)C [Ig, Tetra-tert-butyl (2S,4S,2′S,4′S)-2,2′-[biphenyl-4,4′-diylbis(sulfonyloxypropane-3,1-diyl)]bis[4-(tritylamino)pentanedioate]]",–,–,11.8,Fastest conversion,97.9,97.9,98.0,98.0,98.1,97.9,97.9,97.8,97.5,–,–
"CC(C)(C)OC(=O)[C@@H](CCCOS(=O)(=O)c1ccc([N+](=O)[O-])c(C(F)(F)F)c1)C[C@H](NC(c1ccccc1)(c1ccccc1)c1ccccc1)C(=O)OC(C)(C)C [Ih, Di-tert-butyl (4S)-4-[3-({[4-nitro-3-(trifluoromethyl)phenyl]sulfonyl}oxy)propyl]-N-trityl-L-glutamate]",–,–,–,–,97.6,94.4,94.6,95.0,94.8,93.1,93.1,93.4,92.8,–,–
"CC(C)(C)OC(=O)[C@@H](CCCOS(=O)(=O)c1c(Cl)cc(Cl)cc1Cl)C[C@H](NC(c1ccccc1)(c1ccccc1)c1ccccc1)C(=O)OC(C)(C)C [Ii, Di-tert-butyl (4S)-4-(3-{[(2,4,6-trichlorophenyl)sulfonyl]oxy}propyl)-N-trityl-L-glutamate]",–,–,1.88,–,97.2,89.5,89.6,97.0,97.0,96.7,95.6,95.9,93.2,–,–
N[C@@H](CC([18F])C(=O)O)C(=O)O (some centres unmarked) [[^18F]-4-fluoro-glutamic acid],–,–,–,–,–,–,–,–,–,–,–,–,–,good tumor uptake,some defluorination was detected
